Assay results from US7449465B2, “Triazolopyrimidine derivatives as glycogen synthase kinase 3 inhibitors” (Janssen Pharmaceutica, N.V., priority 2003, dated 2008).

Legend:
[1] = biological target: GSK3β (Homo sapiens, UniProt P49841); assay: GSK3beta assay (SPA, biotinylated phosphorylated CREB peptide, ATP-P33); type: biochemical; conditions: ranges of pIC50 (−log IC50 (M)); 1 μM ATP, room temperature, one hour; read-out: GSK3b pIC50 (converted)
Method: (§1) GSK3beta assays were performed at room temperature in a 100 μl reaction volume of 25 mM Tris (pH 7.4) containing 10 mM MgCl2.6H2O, 1 mM DTI, 0.1 mgiml BSA, 5% glycerol and containing 5.7 ng/μl GSK3β, 5 μM biotinylated phosphorylated CREB peptide, 1 μM ATP, 0.85 μCi/ml ATP-P^33 and a suitable amount of a test compound of formula (I). After one hour, the reaction was terminated by adding 70 μl of Stop mix (0.1 mM ATP, 5 mg/ml streptavidin coated PVT SPA bead pH 11.0). The beads to which the phosphorylated CREB peptide is attached were allowed to settle overnight and the radioactivity of the beads was counted in a microtiterplate scintillation counter and compared with the results obtained in a control experiment (without the presence of a test compound) in order to determine the percentage of GSK3β inhibition. The IC50 value, i.e. the concentration (M) of the test compound at which 50% of GSK3β is inhibited, was calculated from the dose response curve obtained by performing the above-described GSK3β assay in the presence of different amounts of the test compound.

[2] = biological target: GSK3alpha (Homo sapiens, UniProt P49840); assay: GSK3alpha assay (same as the GSK3beta assay, 0.25 ng/μl GSK3alpha); type: biochemical; conditions: ranges of pIC50 (−log IC50 (M)), 1 μM ATP, read-out: GSK3a pIC50 (converted)
GSK3alpha, sequence (P49840 whole entry, species assumed): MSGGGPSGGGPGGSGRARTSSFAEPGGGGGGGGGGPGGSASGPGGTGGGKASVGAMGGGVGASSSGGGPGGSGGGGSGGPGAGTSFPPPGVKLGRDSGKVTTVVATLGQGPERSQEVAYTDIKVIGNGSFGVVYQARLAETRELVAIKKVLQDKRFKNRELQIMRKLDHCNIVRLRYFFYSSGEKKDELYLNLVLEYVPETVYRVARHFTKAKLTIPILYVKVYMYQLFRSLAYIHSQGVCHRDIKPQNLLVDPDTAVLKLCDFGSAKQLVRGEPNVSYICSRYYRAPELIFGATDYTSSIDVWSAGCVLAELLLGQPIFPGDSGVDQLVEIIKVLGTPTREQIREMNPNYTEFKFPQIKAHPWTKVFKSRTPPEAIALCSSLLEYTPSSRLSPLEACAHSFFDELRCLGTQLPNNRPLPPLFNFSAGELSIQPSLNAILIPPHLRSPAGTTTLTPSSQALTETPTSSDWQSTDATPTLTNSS
Method: as §1
The GSK3alpha assay was performed in the same way as described above for the GSK3beta assay except for the concentration of GSK3alpha which is 0.25 ng/μl.

GSK3β, sequence (P49841 whole entry, species assumed): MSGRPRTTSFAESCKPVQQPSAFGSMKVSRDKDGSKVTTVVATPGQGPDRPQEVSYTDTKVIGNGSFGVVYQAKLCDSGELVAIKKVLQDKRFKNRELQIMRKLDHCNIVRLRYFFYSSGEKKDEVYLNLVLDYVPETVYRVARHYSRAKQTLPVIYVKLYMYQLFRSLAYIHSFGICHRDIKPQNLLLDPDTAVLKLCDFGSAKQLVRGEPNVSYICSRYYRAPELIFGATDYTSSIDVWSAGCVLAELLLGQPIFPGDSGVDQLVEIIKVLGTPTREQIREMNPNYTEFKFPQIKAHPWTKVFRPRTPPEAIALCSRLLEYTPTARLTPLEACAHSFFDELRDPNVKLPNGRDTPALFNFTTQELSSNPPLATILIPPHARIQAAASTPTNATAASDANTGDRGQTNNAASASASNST

Compound	IC50 [1]	IC50 [2]
COc1ccc(-n2nnc3cnc(Nc4cccc(-c5nccn5C)c4)nc32)cc1 [Compound 3]	< 1e-08 M	–
Cn1ccnc1-c1cccc(Nc2ncc3nnn(-c4cccc(C(N)=O)c4)c3n2)c1 [Compound 7]	1e-08 to 1e-07 M	< 1e-08 M
Cn1nccc1-c1cccc(Nc2ncc3nnn(-c4cccc(Br)c4)c3n2)c1 [Compound 8]	> 1e-07 M	< 1e-08 M
c1ccc(-n2nnc3cnc(Nc4ccc(N5CCOCC5)cc4)nc32)cc1 [Compound 11]	1e-08 to 1e-07 M	1e-08 to 1e-07 M
Cc1cccc(-n2nnc3cnc(Nc4cccc(-c5nccn5C)c4)nc32)c1 [Compound 14]	< 1e-08 M	–
COc1cccc(-n2nnc3cnc(Nc4cccc(-c5cnco5)c4)nc32)c1 [Compound 16]	< 1e-08 M	< 1e-08 M
COc1cccc(-n2nnc3cnc(Nc4cccc(-c5nccn5C)c4)nc32)c1 [Compound 17]	< 1e-08 M	–
COc1cccc(-n2nnc3cnc(Nc4cccc(-c5nnn(C)n5)c4)nc32)c1 [Compound 18]	< 1e-08 M	< 1e-08 M
COc1cccc(-n2nnc3cnc(Nc4cccc(-c5ccnc(N)n5)c4)nc32)c1 [Compound 19]	< 1e-08 M	< 1e-08 M
Fc1cccc(-n2nnc3cnc(Nc4cccc(-c5cnco5)c4)nc32)c1 [Compound 20]	< 1e-08 M	< 1e-08 M
Cc1nc(-c2cccc(Nc3ncc4nnn(-c5cccc(F)c5)c4n3)c2)cs1 [Compound 21]	< 1e-08 M	< 1e-08 M
Fc1cccc(-n2nnc3cnc(Nc4cccc(-c5cc[nH]n5)c4)nc32)c1 [Compound 22]	< 1e-08 M	< 1e-08 M
Cn1nccc1-c1cccc(Nc2ncc3nnn(-c4cccc(F)c4)c3n2)c1 [Compound 23]	< 1e-08 M	< 1e-08 M
Cn1ccnc1-c1cccc(Nc2ncc3nnn(-c4cccc(F)c4)c3n2)c1 [Compound 24]	< 1e-08 M	< 1e-08 M
Cn1cc(Br)c(-c2cccc(Nc3ncc4nnn(-c5cccc(F)c5)c4n3)c2)n1 [Compound 25]	1e-08 to 1e-07 M	1e-08 to 1e-07 M
Cn1cnnc1-c1cccc(Nc2ncc3nnn(-c4cccc(F)c4)c3n2)c1 [Compound 26]	< 1e-08 M	< 1e-08 M
Fc1cccc(-n2nnc3cnc(Nc4cccc(-c5nnn[nH]5)c4)nc32)c1 [Compound 27]	< 1e-08 M	< 1e-08 M
Cn1nnnc1-c1cccc(Nc2ncc3nnn(-c4cccc(F)c4)c3n2)c1 [Compound 28]	< 1e-08 M	< 1e-08 M
Cn1nnc(-c2cccc(Nc3ncc4nnn(-c5cccc(F)c5)c4n3)c2)n1 [Compound 29]	< 1e-08 M	< 1e-08 M
Fc1cccc(-n2nnc3cnc(Nc4cccc(-c5cncnc5)c4)nc32)c1 [Compound 31]	< 1e-08 M	–
Cc1nccc(-c2cccc(Nc3ncc4nnn(-c5cccc(F)c5)c4n3)c2)n1 [Compound 32]	< 1e-08 M	< 1e-08 M
Nc1nccc(-c2cccc(Nc3ncc4nnn(-c5cccc(F)c5)c4n3)c2)n1 [Compound 33]	< 1e-08 M	< 1e-08 M

Compound	IC50 [1]	IC50 [2]
CNc1nccc(-c2cccc(Nc3ncc4nnn(-c5cccc(F)c5)c4n3)c2)n1 [Compound 34]	< 1e-08 M	< 1e-08 M
N#CNc1nccc(-c2cccc(Nc3ncc4nnn(-c5cccc(F)c5)c4n3)c2)n1 [Compound 35]	< 1e-08 M	< 1e-08 M
CN1CCN(c2cccc(Nc3ncc4nnn(-c5cccc(F)c5)c4n3)c2)CC1 [Compound 36]	< 1e-08 M	< 1e-08 M
Fc1cccc(-n2nnc3cnc(Nc4ccc(-n5cccc5)cc4)nc32)c1 [Compound 37]	> 1e-07 M	–
Fc1cccc(-n2nnc3cnc(Nc4ccc(-c5cnco5)cc4)nc32)c1 [Compound 38]	1e-08 to 1e-07 M	1e-08 to 1e-07 M
Fc1cccc(-n2nnc3cnc(Nc4ccc(-n5cccn5)cc4)nc32)c1 [Compound 39]	1e-08 to 1e-07 M	> 1e-07 M
Fc1cccc(-n2nnc3cnc(Nc4ccc(-n5cncn5)cc4)nc32)c1 [Compound 40]	< 1e-08 M	< 1e-08 M
CCC(C)n1ncn(-c2ccc(Nc3ncc4nnn(-c5cccc(F)c5)c4n3)cc2)c1=O (centres unmarked) [Compound 41]	1e-08 to 1e-07 M	1e-08 to 1e-07 M
Cn1nnc(-c2ccc(Nc3ncc4nnn(-c5cccc(F)c5)c4n3)cc2)n1 [Compound 42]	< 1e-08 M	1e-08 to 1e-07 M
Brc1cccc(-n2nnc3cnc(Nc4cccc(C5=NCNC5)c4)nc32)c1 [Compound 43]	< 1e-08 M	< 1e-08 M
Brc1cccc(-n2nnc3cnc(Nc4cccc(-c5ccn[nH]5)c4)nc32)c1 [Compound 44]	1e-08 to 1e-07 M	< 1e-08 M
Cn1cc(Br)c(-c2cccc(Nc3ncc4nnn(-c5cccc(Br)c5)c4n3)c2)n1 [Compound 45]	1e-08 to 1e-07 M	–
O=c1[nH]nc(-c2cccc(Nc3ncc4nnn(-c5cccc(Br)c5)c4n3)c2)[nH]1 [Compound 46]	1e-08 to 1e-07 M	< 1e-08 M
Brc1cccc(-n2nnc3cnc(Nc4cccc(-c5cncnc5)c4)nc32)c1 [Compound 47]	< 1e-08 M	< 1e-08 M
Cc1nccc(-c2cccc(Nc3ncc4nnn(-c5cccc(Br)c5)c4n3)c2)n1 [Compound 48]	1e-08 to 1e-07 M	–
Cn1ccnc1-c1cccc(Nc2ncc3nnn(-c4ccc(Br)cc4)c3n2)c1 [Compound 49]	1e-08 to 1e-07 M	–
Brc1cccc(-n2nnc3cnc(Nc4ccc(-c5cc[nH]n5)cc4)nc32)c1 [Compound 50]	1e-08 to 1e-07 M	< 1e-08 M
Brc1cccc(-n2nnc3cnc(Nc4ccc(-n5cncn5)cc4)nc32)c1 [Compound 51]	1e-08 to 1e-07 M	–
Brc1cccc(-n2nnc3cnc(Nc4ccc(-c5nnn[nH]5)cc4)nc32)c1 [Compound 52]	< 1e-08 M	< 1e-08 M
Cn1nnc(-c2ccc(Nc3ncc4nnn(-c5cccc(Br)c5)c4n3)cc2)n1 [Compound 53]	1e-08 to 1e-07 M	< 1e-08 M
Brc1cccc(-n2nnc3cnc(Nc4ccc(Nc5ncccn5)cc4)nc32)c1 [Compound 54]	1e-08 to 1e-07 M	< 1e-08 M
CSc1ccc(-n2nnc3cnc(Nc4cccc(-c5nccn5C)c4)nc32)cc1 [Compound 55]	1e-08 to 1e-07 M	–

Compound	IC50 [1]	IC50 [2]
Cn1ccnc1-c1cccc(Nc2ncc3nnn(-c4ccc(CCO)cc4)c3n2)c1 [Compound 56]	1e-08 to 1e-07 M	–
CC(=O)N(C)c1ccc(-n2nnc3cnc(Nc4cccc(-c5nccn5C)c4)nc32)cc1 [Compound 57]	> 1e-07 M	–
Cc1ccc(-n2nnc3cnc(Nc4cccc(-c5nccn5C)c4)nc32)cc1Cl [Compound 60]	1e-08 to 1e-07 M	–
COc1ccc(-n2nnc3cnc(Nc4cccc(-c5nccn5C)c4)nc32)cc1F [Compound 61]	1e-08 to 1e-07 M	–
COc1cc(-n2nnc3cnc(Nc4cccc(-c5nccn5C)c4)nc32)cc(C(F)(F)F)c1 [Compound 63]	< 1e-08 M	–
Cn1ccnc1-c1cccc(Nc2ncc3nnn(-c4ccc5c(c4)CCC5)c3n2)c1 [Compound 65]	< 1e-08 M	–
Cn1ccnc1-c1cccc(Nc2ncc3nnn(-c4ccc5c(c4)OCCO5)c3n2)c1 [Compound 66]	< 1e-08 M	–
c1ccc(-n2nnc3cnc(Nc4cccc(-c5cnco5)c4)nc32)cc1 [Compound 73]	< 1e-08 M	< 1e-08 M
Cn1nnnc1-c1cccc(Nc2ncc3nnn(-c4ccccc4)c3n2)c1 [Compound 74]	< 1e-08 M	< 1e-08 M
OCCc1cccc(-n2nnc3cnc(Nc4cccc(-c5nnn[nH]5)c4)nc32)c1 [Compound 75]	1e-08 M	1e-08 to 1e-07 M
Cn1nnnc1-c1cccc(Nc2ncc3nnn(-c4cccc(CCO)c4)c3n2)c1 [Compound 76]	< 1e-08 M	< 1e-08 M
CN1CCN(c2ccc(Nc3ncc4nnn(-c5cccc(CCO)c5)c4n3)cc2)CC1 [Compound 77]	< 1e-08 M	< 1e-08 M
CN1CCN(Cc2ccc(Nc3ncc4nnn(-c5cccc(CCO)c5)c4n3)cc2)CC1 [Compound 78]	< 1e-08 M	< 1e-08 M
OCCc1cccc(-n2nnc3cnc(Nc4ccc(CN5CCC(O)CC5)cc4)nc32)c1 [Compound 79]	< 1e-08 M	< 1e-08 M
O=C(NCCN1CCOCC1)c1ccc(Nc2ncc3nnn(-c4cccc(CCO)c4)c3n2)cc1 [Compound 81]	< 1e-08 M	< 1e-08 M
CN1CCN(CCOc2ccc(Nc3ncc4nnn(-c5cccc(CCO)c5)c4n3)cc2)CC1 [Compound 82]	1e-08 M	< 1e-08 M
CN1CCN(CCCOc2ccc(Nc3ncc4nnn(-c5cccc(CCO)c5)c4n3)cc2)CC1 [Compound 83]	< 1e-08 M	< 1e-08 M
COCCOCc1cccc(-n2nnc3cnc(Nc4ccc(N5CCOCC5)cc4)nc32)c1 [Compound 107]	< 1e-08 M	–
Nc1nccc(-c2cccc(Nc3ncc4nnn(-c5cccc(CNC(=O)C6CC6)c5)c4n3)c2)n1 [Compound 119]	–	1e-08 to 1e-07 M
Cn1ccnc1-c1cccc(Nc2ncc3nnn(-c4ccc5cn[nH]c5c4)c3n2)c1 [Compound 148]	1e-08 to 1e-07 M	–
O=C(O)c1cc(Nc2ncc3nnn(-c4cccc(F)c4)c3n2)ccc1N1CCOCC1 [Compound 150]	–	1e-08 to 1e-07 M
COCCOc1cccc(-n2nnc3cnc(Nc4ccc(OCCN5CCN(C)CC5)cc4)nc32)c1 [Compound 153]	1e-08 to 1e-07 M	–
